Data taken from patent US20250282812A1, “ANTIVIRAL NUCLEOSIDE ANALOGUE, AND PHARMACEUTICAL COMPOSITION AND USE THEREOF” (SHANGHAI INSTITUTE OF MATERIA MEDICA , CHINESE ACADEMY OF …, priority 2022, published 2025).
Counter-ions that a name gives are not always drawn.

Key:
[1] = system: influenza virus (IFV) A/California/07/2009 (H1N1) pdm09 strain; experiment: In vitro activity against influenza virus (CPE, CCK8, MDCK cells); type: cell-based; conditions: 120 h; for EC50: read-out: IFV (MDCK) EC50
[2] = system: respiratory syncytial virus (RSV) A long strain; experiment: In vitro activity against respiratory syncytial virus (CPE, CCK8, HEp-2 cells); type: cell-based; conditions: human respiratory syncytial virus, 120 h, MOI=0.02, 5 days; for inhibition at 5 µM: read-out: RSV (HEp-2) inhibition rate at a concentration of 5 μM
in vitro = conditions: dog
[3] = Cytotoxicity in HEp-2 cells (CCK8); conditions: human
SFTSV-Nluc = experiment: microbe, parasite or virus in culture; type: cell-based, severe fever with thrombocytopenia syndrome virus (SFTSV); conditions: Severe fever with thrombocytopenia syndrome virus, Vero, 48 h; for inhibition at 10 µM: read-out: Inhibition rate (10 μM)
[4] = Stability test of compounds in solutions at different pH values

Row | Compound | CC50 (in vitro) [nM] | CC50 at 5 days [3] [nM] | EC50 [1] [nM] | EC50 [2] [nM] | other results
1 | CCC(CC)C(=O)OC[C@@]1(F)O[C@@H](n2ccc(=O)n(COC(=O)C(C)C)c2=O)[C@H](O)[C@@H]1O [Compound X57] | > 5000 | > 5000 |  |  | inhibition at 5 µM ([1]; read-out: IFV (MDCK) inhibition rate at a concentration of 5 μM): 90.5%; inhibition at 5 µM [2]: 50.3%
2 | CC(C)C(=O)OC[C@@]1(F)O[C@@H](n2ccc(=O)n(COC(=O)[C@@H](N)C(C)C)c2=O)[C@H](OC(=O)C(C)C)[C@@H]1OC(=O)C(C)C [Compound X98] | > 10000 | > 10000 | 500 | 1420 | EC50 (SFTSV-Nluc): 1160 nM; inhibition at 10 µM (SFTSV-Nluc): 95.7%
3 | CC(C)C(=O)OCn1c(=O)ccn([C@@H]2O[C@](F)(COC(=O)c3cccnc3)[C@@H](O)[C@H]2O)c1=O [Compound X208] | > 10000 |  | < 370 | 1090 | 
4 | O=C(OCn1c(=O)ccn([C@@H]2O[C@](F)(COC(=O)c3cccnc3)[C@@H](OC(=O)c3cccnc3)[C@H]2OC(=O)c2cccnc2)c1=O)c1cccnc1 [Compound X232] | > 10000 | > 10000 | 850 | 1130 | 
5 | CC(C)C(=O)OCn1c(=O)ccn([C@@H]2O[C@](F)(CO)[C@@H](O)[C@H]2O)c1=O [Compound X43] | > 10000 | > 10000 | 500 | 2320 | 
6 | O=C(OCn1c(=O)ccn([C@@H]2O[C@](F)(COC(=O)c3cccnc3)[C@@H](O)[C@H]2O)c1=O)c1cccnc1 [Compound X231] | > 10000 | > 10000 | 510 | 1160 | 
7 | CC(C)C(=O)OCn1c(=O)ccn([C@@H]2O[C@](F)(CO)[C@H]3OC(=O)O[C@@H]23)c1=O [Compound X173] | > 10000 | > 10000 | 460 | 2620 | 
8 | O=C(/C=C/c1ccccc1)OCn1c(=O)ccn([C@@H]2O[C@](F)(COC(=O)/C=C/c3ccccc3)[C@@H](O)[C@H]2O)c1=O [Compound X198] |  | > 10000 |  | 2450 | 
9 | CC(C)C(=O)OC[C@@]1(F)O[C@@H](n2ccc(=O)n(COC(=O)[C@@H]3CCCN3)c2=O)[C@H](OC(=O)C(C)C)[C@@H]1OC(=O)C(C)C [Compound X266] | > 10000 | > 10000 | 894 | 1020 | EC50 (SFTSV-Nluc): 2070 nM; inhibition at 10 µM (SFTSV-Nluc): 94.6%
10 | CC(C)C(=O)OC[C@@]1(F)O[C@@H](n2ccc(=O)n(COC(=O)[C@@H]3CCCN3C)c2=O)[C@H](OC(=O)C(C)C)[C@@H]1OC(=O)C(C)C [Compound X267] | > 10000 | > 10000 | 500 | 880 | EC50 (SFTSV-Nluc): 2000 nM; inhibition at 10 µM (SFTSV-Nluc): 94.1%
11 | CC(C)C(=O)OC[C@@]1(F)O[C@@H](n2ccc(=O)n(COC(=O)CCCN(C)C)c2=O)[C@@H]2OC(=O)O[C@@H]21 [Compound X185] |  | > 5000 |  |  | inhibition at 5 µM [2]: 94.7%
12 | CC(C)C(=O)OCn1c(=O)ccn([C@@H]2O[C@](F)(COC(=O)C3CCCCC3)[C@@H](O)[C@H]2O)c1=O [Compound X61] | > 10000 | > 10000 | < 370 | 2040 | EC50 (SFTSV-Nluc): 590 nM; inhibition at 10 µM (SFTSV-Nluc): 96.1%
13 | CCCCCCCCCCCC(=O)OCn1c(=O)ccn([C@@H]2O[C@](F)(COC(=O)CCCCCCCCCCC)[C@@H](O)[C@H]2O)c1=O [Compound X199] | > 10000 | > 10000 | 410 | 460 | EC50 (SFTSV-Nluc): 2790 nM; inhibition at 10 µM (SFTSV-Nluc): 96.1%
14 | CC(C)C(=O)OCn1c(=O)ccn([C@@H]2O[C@](F)(COC(=O)C(C)C)[C@@H](OC(=O)C(C)C)[C@H]2OC(=O)C(C)C)c1=O [Compound X201] | > 10000 | > 10000 | 560 | 1510 | 
15 | O=C(OCn1c(=O)ccn([C@@H]2O[C@](F)(COC(=O)C3CCCCC3)[C@@H](O)[C@H]2O)c1=O)C1CCCCC1 [Compound X63] | > 10000 | > 10000 | < 370 | 1510 | 
16 | CC(C)C(=O)O[C@H]1[C@H](n2ccc(=O)n(COC(=O)c3cccnc3)c2=O)O[C@](F)(COC(=O)c2cccnc2)[C@H]1OC(=O)C(C)C [Compound X257] | > 10000 | > 10000 | 1380 | 1640 | 

Row | Compound | CC50 (in vitro) [nM] | CC50 at 5 days [3] [nM] | EC50 [1] [nM] | EC50 [2] [nM] | other results
17 | CCC(CC)C(=O)OCn1c(=O)ccn([C@@H]2O[C@](F)(COC(=O)C(C)C)[C@@H](O)[C@H]2O)c1=O [Compound X52] | > 10000 | > 10000 | 570 | 4850 | Content reduction (%) ([4]; buffered saline solution pH 4.0, 3 h): 0.9%; Content reduction (%) ([4]; buffered saline solution pH 4.0, 6 h): 1.4%; Content reduction (%) ([4]; buffered saline solution pH 4.0, 9 h): 1.9%; Content reduction (%) ([4]; buffered saline solution pH 4.0, 12 h): 2.2%; Content reduction (%) ([4]; buffered saline solution pH 4.0, 15 h): 2.6%; Content reduction (%) ([4]; buffered saline solution pH 4.0, 18 h): 3.0%; Content reduction (%) ([4]; buffered saline solution pH 4.0, 21 h): 3.4%; Content reduction (%) ([4]; buffered saline solution pH 4.0, 24 h): 3.6%; Content reduction (%) ([4]; buffered saline solution pH 6.8, 3 h): 1.2%; Content reduction (%) ([4]; buffered saline solution pH 6.8, 6 h): 2.3%; Content reduction (%) ([4]; buffered saline solution pH 6.8, 9 h): 3.3%; Content reduction (%) ([4]; buffered saline solution pH 6.8, 12 h): 4.3%; Content reduction (%) ([4]; buffered saline solution pH 6.8, 15 h): 5.4%; Content reduction (%) ([4]; buffered saline solution pH 6.8, 18 h): 6.6%; Content reduction (%) ([4]; buffered saline solution pH 6.8, 21 h): 7.6%; Content reduction (%) ([4]; buffered saline solution pH 6.8, 24 h): 8.7%
18 | CCC(CC)C(=O)OC[C@@]1(F)O[C@@H](n2ccc(=O)n(COC(=O)c3cccnc3)c2=O)[C@H](O)[C@@H]1O [Compound X211] | > 10000 | > 10000 | 3340 | 5820 | 
19 | CCCCCCCCCCCCCCCC(=O)OCn1c(=O)ccn([C@@H]2O[C@](F)(COC(=O)CCCCCCCCCCCCCCC)[C@@H](O)[C@H]2O)c1=O [Compound X200] | > 10000 | > 10000 | 2290 | 1170 | 
20 | CC(C)C(=O)OC[C@@]1(F)O[C@@H](n2ccc(=O)n(COC(=O)C3CCN(C)CC3)c2=O)[C@H](OC(=O)C(C)C)[C@@H]1OC(=O)C(C)C [Compound X205] | > 10000 | > 10000 | < 370 | 2560 | 
21 | CC(C)(C)C(=O)OCn1c(=O)ccn([C@@H]2O[C@](F)(COC(=O)c3cccnc3)[C@@H](O)[C@H]2O)c1=O [Compound X222] | > 10000 | > 10000 | < 370 | 770 | EC50 (SFTSV-Nluc): 3300 nM; inhibition at 10 µM (SFTSV-Nluc): 90.3%
22 | O=C1O[C@H]2[C@H](n3ccc(=O)n(COC(=O)c4cccnc4)c3=O)O[C@](F)(COC(=O)c3cccnc3)[C@H]2O1 [Compound X233] | > 10000 | > 10000 | 460 | 1200 | 
23 | CC(C)C(=O)OCn1c(=O)ccn([C@@H]2O[C@](F)(COC(=O)[C@@H](N)C(C)C)[C@@H](OC(=O)C(C)C)[C@H]2OC(=O)C(C)C)c1=O [Compound X79] | > 10000 | > 10000 | 480 | 1460 | inhibition at 10 µM (SFTSV-Nluc): < 10%
24 | CCN(CC)CC(=O)OCn1c(=O)ccn([C@@H]2O[C@](F)(COC(=O)C(C)C)[C@@H](OC(=O)C(C)C)[C@H]2OC(=O)C(C)C)c1=O [Compound X260] | > 10000 | > 10000 | < 370 | 2340 | 
25 | CCC(CC)C(=O)OCn1c(=O)ccn([C@@H]2O[C@](F)(COC(=O)c3cccnc3)[C@@H](O)[C@H]2O)c1=O [Compound X223] | > 10000 | > 10000 | 820 | 2140 | 
26 | CC(C)=CCOc1ccn([C@@H]2O[C@](F)(COC(=O)C(C)C)[C@@H](O)[C@H]2O)c(=O)n1 [Compound X134] | > 10000 | > 10000 | 460 | 1200 | 
27 | CC(C)C(=O)OC[C@@]1(F)O[C@@H](n2ccc(=O)n(COC(=O)c3cccnc3)c2=O)[C@@H]2OC(=O)O[C@@H]21 [Compound X214] | > 10000 | > 10000 | < 370 | 2090 | 
28 | CC(C)C(=O)OC[C@@]1(F)O[C@@H](n2ccc(=O)n(COC(=O)C3CCNCC3)c2=O)[C@H](OC(=O)C(C)C)[C@@H]1OC(=O)C(C)C [Compound X204] | > 10000 | > 10000 | 650 | 1520 | 
29 | CCC(=O)OC[C@@]1(F)O[C@@H](n2ccc(=O)n(COC(=O)c3cccnc3)c2=O)[C@H](OC(=O)CC)[C@@H]1OC(=O)CC [Compound X220] | > 10000 | > 10000 | 819 | 1290 | 
30 | CC(C)C(=O)OC[C@@]1(F)O[C@@H](n2ccc(=O)n(COC(=O)CN(C)C)c2=O)[C@H](OC(=O)C(C)C)[C@@H]1OC(=O)C(C)C [X100 hydrochloride] | > 10000 | > 10000 | 410 | 1790 | 
31 | CC(C)(C)C(=O)OC[C@@]1(F)O[C@@H](n2ccc(=O)n(COC(=O)c3cccnc3)c2=O)[C@H](O)[C@@H]1O [Compound X210] | > 10000 | > 10000 | < 370 | 1880 | 
32 | CC(C)C(=O)OCn1c(=O)ccn([C@@H]2O[C@](F)(COC(=O)C(C)C)[C@H]3OC(=O)O[C@@H]23)c1=O [Compound X113] | > 10000 | > 10000 | < 370 | 1970 | 
